Laboratory results published in patent publication US20120053119A1, “THERAPEUTIC METHOD FOR INCREASING PANCREATIC BETA CELL MASS” (priority 2009, published 2012).
Ends that are not written are not given here.

Tests used:
INS-1 or Min6 beta cells = test: SDF-1 mRNA by QPCR in injured beta cells; format: cell-based; conditions: 3 to 20 hrs
Protocol: FIG. 15. […] INS-1 or Min6 beta cells were treated for 3 to 20 hrs with the stress/apoptosis inducers, thapsigargin, streptozotocin (STZ), or mixtures of cytokines (listed at the bottom of the right lower panel). SDF-1 mRNA was measured in cell extracts by QPCR. Cytokines also stimulate the secretion of SDF-1 Protein (see new FIG. 21).

Wnt signaling [1] = test: Wnt signaling luciferase reporter assay (TOPflash/FOPflash) in INS-1 cells; format: cell-based
Protocol: Wnt signaling is indicated by the value of TOPflash luciferase activity divided by FOPflash activity. A. Time course of the TOPflash:FOPflash ratio of INS-1 cell treated with 1 nM SDF-1. B. Ratio of TOPflash to FOPflash activity in INS-1 cells treated with increasing doses of SDF-1. C. […] All values are relative to the value of the untreated INS-1 cells. Data are normalized for transfection efficiency by co-transfected beta-galactosidase and represent means±S.D. of three experiments.
All values are relative to the first (leftmost) bar. Statistical significance is depicted as * (p<0.05) when compared with control values (leftmost bar). Data are normalized for transfection efficiency by co-transfected beta-galactosidase and represent means±S.D. of three experiments.
Wnt Signaling Luciferase Reporter Assay (TOPflash) INS-1 cells were plated into 24-well dishes 24 hr before transfection with TOPflash or the mutant, control reporter, FOPflash (1 microg/well) using LipofectAMINE2000 (Invitrogen). Various concentrations of SDF-1 or AMD3100 were then added to the culture medium 24 h following transfection for the indicated period of time. In studies in which inhibitors were used, LY294002 (50 microM), PD98059 (10 microM) or SH-5 (10 nM) were added concomitantly with SDF-1. In studies in which wild-type (wt), dominant-negative (dn) or contitutively-active (ca) forms of kinase were used, dnTCF7L2, dnGSK3beta, caGSK3beta, dnAkt, or caAkt (0.5 microg/well) was cotransfected with TOPflash. Luciferase activity in transfected cells was determined with a luciferase assay kit (Promega).
We examined SDF-1 induction of Wnt signaling using a Wnt signaling reporter assay (TOPflash/FOPflash). The TOPflash and FOPflash constructs contain the luciferase reporter either under the control of consensus TCF7L2-binding sites or mutated TCF7L2-binding sites, respectively. Luciferase activity was measured during 4 hr after addition of 1 nM SDF-1 (FIG. 3A).

INS-1 cells [2] = conditions: serum-free, SDF-1 2 nM, AMD3100 16 nM-2 uM, day 6
Protocol: INS-1 cells were plated in 96 well plates in control medium (no serum) or a medium containing 2% serum.

INS-1 cells [3] = test: ATP-lite cell viability assay, serum deprivation, SDF-1 with AMD3100; format: cell-based; conditions: serum-free, SDF-1 2 nM
Protocol: ATP lite cell viability assay: INS-1 cells were plated in 96 well plates. SDF-1 (2 nM) and AMD3100 were added at day 0, 2, 4 and cell viability was measured at day 6 using relative light units (RLU) as compared to control. N=6.
INS-1 cells were plated in 96 well plates in control medium (no serum) or a medium containing 2% serum. SDF-1 (2 nM) and SDF-1 (2 nM) along with various concentrations of AMD3100 (2 uM, 0.4 uM, 80 nM, 16 nM) were added to different cell groups incubated in serum-free medium at days 0, 2, 4, and cell viability was measured at day 6 using relative light units (RLU) as compared to control.

Wnt signaling [4] = test: Wnt signaling reporter (beta-galactosidase) in isolated islets of TopGal mouse; format: cell-based; conditions: added with SDF-1, isolated TopGal mouse islets
From the text: A. Isolated islets express reporter-driven beta-galactosidase. The dark regions mark the expression of beta-galactosidase, an indicator of the activation of the Wnt signaling reporter LacZ transgene. […] B. Polymerase chain reaction showing changes in beta-galactosidase mRNA levels in islets shown in panel A.
Isolated mouse pancreatic islets Mouse islets were isolated (Lacy PE (1994) Pancreatic islet cell transplant. Mt Sinai J. Med. 61:23-31.) from the pancreata of TopGal reporter mice transgenic for the LEF-LacZ Wnt signaling reporter (DasGupta R, Fuchs E (1999) Development. 1999 126:4557-4568.). Freshly isolated islets were treated for 4 hrs with SDF-1 with and without the addition of the Galphai/o inhibitor pertussis toxin (PTX) or the CXCR4 antagonist AMD3100. Betagalactosidase activity was determined by incubation of the islets with X-gal for 6 hrs.
Polymerase chain reaction analyses of betagalactosidase mRNA levels in isolated mouse islets Islets from TopGal mice were harvested after treatments with SDF-1, SDF-1+AMD3100, and SDF-1+pertussis toxin. RNA was extracted and beta galactosidase mRNA levels were measured by PCR using a SYBR Green QPCR kit (Stratagene) with the primers as described in Liu Z, Habener J F 2008 Glucagon-like Peptide-1 Activation of TCF7L2-dependent Wnt Signaling Enhances Pancreatic Beta Cell Proliferation. […]

INS-1 or MIN6 cells = test: Thapsigargin-induced apoptosis, caspase-3 activity assay; format: cell-based; conditions: thapsigargin 1 microM, 16 h
Protocol: FIG. 6. Inhibition of apoptosis by SDF-1 in INS-1 and MIN-6 cells is reversed by knock-down of betacatenin. A. Western blot analysis of extracts from MIN6 cells that were mock treated, thapsigargin-treated (1 μM) and/or siRNA transfected (0.25 mg/ml), by using anti-serum against cleaved caspase-3 (upper panel), anti-serum against cleaved PARP (middle panel) and actin antibody (lower panel) as a loading control. B. Caspase-3 activity (fluorescence/mg proteinx105) of INS-1 or MIN6 cells mock treated, thapsigargin-treated (1 μM) and/or siRNA transfected (0.25 mg/ml). Results are presented as mean±SD for n=3 independent experiments, All values are relative to the first (leftmost) bar. […] Quantification of apoptotic cells is expressed as percent apoptotic cells relative to the total cells counted (lower left panel). […]
Thapsigargin-induced apoptosis in INS-1 or MIN6 cells For western immuoblot assay (Cell Signaling), MIN6 cells were seeded into 6 well plates then treated with 1 microM thapsigargin or DMSO control for 16 h and apoptotic activity was measured by Western immunoblotting using antisera specific for cleaved (active) caspase-3 (Cell signaling #9661) and cleaved (active) PARP (Cell signaling #9548). For caspase-3 assay, INS-1 cells or MIN-6 cells in 24-well plates were treated with 1 microM thapsigargin or DMSO for 16 hand caspase-3 activity was determined (Molecular Probes). […]

insulin producing cells = conditions: in vitro, equimolar quantities; cited from earlier work
pancreatic beta cell = test: Preliminary studies of nonapeptide on pancreatic beta cell survival and growth; format: cell-based; conditions: preliminary data
From the text: (§1) The inventors have done preliminary studies using GLP-1(28-36), a nine amino acid peptide (the “nonapeptide”) cleaved from the C-terminus of GLP-1 (SEQ ID NO:4). In the studies, the inventors used the peptide having an arginine amide at the C-terminus (FIAWLVKGR-amide). […] The nonapeptide works both when applied to cells in vitro/ex vivo and when infused into mice in vivo.

mice = test: Infusion of GLP-1(28-36) amide nonapeptide into mice, islet size; format: in vivo; conditions: infusions into mice, preliminary
From the text: as §1

[5] = tested on: INS-1 cells and mouse islets; test: GLP-1 pro-proliferative and cytoprotective actions; format: cell-based; conditions: tentative

CN(N=O)C(=O)N[C@H]1C(O)O[C@H](CO)[C@@H](O)[C@@H]1O (mixture of isomers) [streptozotocin]
SDF-1 expression (mRNA) in injured beta cells (INS-1 or Min6 beta cells): induces SDF-1 expression

c1cc(CN2CCCNCCNCCCNCC2)ccc1CN1CCCNCCNCCCNCC1 [AMD3100]
effect on SDF-1 activation of luciferase activity (TOPflash/FOPflash) (Wnt signaling [1]; coincubation with increasing amounts): antagonized | effect on SDF-1 mediated insulin production (INS-1 cells [2]): partially and dose-dependently blocked | effect on SDF-1 mediated cell survival (INS-1 cells [3]; AMD3100 16 nM-2 uM): partially and dose-dependently blocked | effective concentration for blocking SDF-1 mediated cell survival (INS-1 cells [3]; day 6): around 1 uM | effect on SDF-1-induced Wnt signaling response in TopGal islets (Wnt signaling [4]): inhibition

COc1cccc(-c2cc(=O)c3ccccc3o2)c1N [PD98059]
effect on SDF-1-stimulated TOPflash activity (Wnt signaling [1]; LY294002 50 microM, PD98059 10 microM, SH-5 10 nM): does not affect | effect on basal level TOPflash activity (Wnt signaling [1]; no SDF-1): do not affect

C/C=C(/C)C(=O)O[C@H]1C(C)=C2[C@H]([C@@H]1OC(=O)CCCCCCC)[C@@](C)(OC(C)=O)C[C@H](OC(=O)CCC)[C@@]1(O)[C@H]2OC(=O)[C@@]1(C)O [Thapsigargin, reference compound]
SDF-1 expression (mRNA) in injured beta cells (INS-1 or Min6 beta cells): induces SDF-1 expression | induction of caspase-3 activity (INS-1 or MIN6 cells): threefold

Exendin-4: GLP-1 agonist peptide from Gila Monster salivary glands, SEQ ID NO: 3
potency at causing insulin release (insulin producing cells): more potent than GLP-1

FIAWLVKGR-amide (FIAWLVKGR-NH2) [GLP-1(28-36) amide nonapeptide]
pancreatic beta cell survival and growth (pancreatic beta cell): profound effects | islet size in mice (mice): enhances islet size

glucoincretin hormone, SEQ ID NO: 2, HAEGTFTSDVSSYLEGQAAKEFIAWLVKGRG [GLP-1]
Kd [5]: 1 nM | cytoprotective actions (concentration) [5]: 10 nM
